Measurements from patent US8557800B2, “Sphingosine kinase inhibitors” (Apogee Biotechnology Corporation, priority 2005, dated 2013).

Assays:
Abl = Abl (Homo sapiens, UniProt P00519); assay: Kinase selectivity panel; format: biochemical; settings: read-out: percent of control activity, Abl
Experimental: (§1) A common problem with attempts to develop protein kinase inhibitors is the lack of selectivity toward the target kinase since the majority of these compounds interact with nucleotide-binding domains that are highly conserved among kinases. […] The compound was tested at a single concentration of 50 μM.

Aurora-A = Aurora-A (Homo sapiens, UniProt O14965); assay: Kinase selectivity panel; format: biochemical; settings: read-out: percent of control activity, Aurora-A
Experimental: as §1

CDK1/cyclinB = CDK1/cyclinB (Homo sapiens, UniProt P06493); assay: Kinase selectivity panel; format: biochemical; settings: read-out: percent of control activity, CDK1/cyclinB
Chain of CDK1/cyclinB (P06493 whole entry, species assumed): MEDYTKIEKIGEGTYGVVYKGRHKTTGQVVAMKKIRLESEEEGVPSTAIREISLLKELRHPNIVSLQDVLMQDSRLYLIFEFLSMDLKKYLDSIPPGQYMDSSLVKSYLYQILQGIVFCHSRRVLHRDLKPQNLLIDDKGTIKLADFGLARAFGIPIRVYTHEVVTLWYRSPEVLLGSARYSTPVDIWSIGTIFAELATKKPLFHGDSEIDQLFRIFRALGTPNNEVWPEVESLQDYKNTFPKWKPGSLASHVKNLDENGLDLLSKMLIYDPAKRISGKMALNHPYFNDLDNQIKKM
Chain of CDK1/cyclinB (P14635 whole entry partner, species assumed): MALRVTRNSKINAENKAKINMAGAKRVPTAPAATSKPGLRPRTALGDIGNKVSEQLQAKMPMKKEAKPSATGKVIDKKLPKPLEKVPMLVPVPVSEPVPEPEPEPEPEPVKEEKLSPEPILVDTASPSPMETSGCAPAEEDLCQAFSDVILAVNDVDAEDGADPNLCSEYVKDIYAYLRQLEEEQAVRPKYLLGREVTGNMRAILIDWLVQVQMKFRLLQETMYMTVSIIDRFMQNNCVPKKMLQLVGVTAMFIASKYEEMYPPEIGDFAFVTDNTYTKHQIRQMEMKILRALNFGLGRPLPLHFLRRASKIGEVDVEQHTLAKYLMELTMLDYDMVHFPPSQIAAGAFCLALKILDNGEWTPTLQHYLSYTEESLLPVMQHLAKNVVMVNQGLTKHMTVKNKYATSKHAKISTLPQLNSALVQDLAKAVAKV
Experimental: as §1

CDK2/cyclinE = CDK2/cyclinE (Homo sapiens, UniProt P24941); assay: Kinase selectivity panel; format: biochemical; settings: read-out: percent of control activity, CDK2/cyclinE
Experimental: as §1

CHK1 = CHK1 (Homo sapiens, UniProt O14757); assay: Kinase selectivity panel; format: biochemical; settings: read-out: percent of control activity, CHK1
Chain of CHK1 (O14757 whole entry, species assumed): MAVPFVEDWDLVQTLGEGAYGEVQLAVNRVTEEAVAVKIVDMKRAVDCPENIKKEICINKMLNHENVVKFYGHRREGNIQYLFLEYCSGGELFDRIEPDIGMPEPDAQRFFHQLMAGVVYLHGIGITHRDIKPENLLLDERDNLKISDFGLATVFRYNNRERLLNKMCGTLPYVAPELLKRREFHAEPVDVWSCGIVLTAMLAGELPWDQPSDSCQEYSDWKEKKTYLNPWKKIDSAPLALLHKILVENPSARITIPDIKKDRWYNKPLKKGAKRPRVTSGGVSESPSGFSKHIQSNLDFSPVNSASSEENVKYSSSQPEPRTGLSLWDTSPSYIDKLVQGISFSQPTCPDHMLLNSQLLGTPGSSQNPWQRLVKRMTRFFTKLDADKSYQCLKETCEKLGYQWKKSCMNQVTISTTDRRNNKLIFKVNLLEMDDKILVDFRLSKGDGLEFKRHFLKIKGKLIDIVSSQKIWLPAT
Experimental: as §1

Ca^2+/calmodulin PK IV = Ca^2+/calmodulin PK IV (Homo sapiens, UniProt Q16566); assay: Kinase selectivity panel; format: biochemical; settings: read-out: percent of control activity, Ca^2+/calmodulin PK IV
Experimental: as §1

EFGR = EFGR (Homo sapiens, UniProt P00533); assay: Kinase selectivity panel; format: biochemical; settings: read-out: percent of control activity, EFGR
Chain of EFGR (P00533 25-1210): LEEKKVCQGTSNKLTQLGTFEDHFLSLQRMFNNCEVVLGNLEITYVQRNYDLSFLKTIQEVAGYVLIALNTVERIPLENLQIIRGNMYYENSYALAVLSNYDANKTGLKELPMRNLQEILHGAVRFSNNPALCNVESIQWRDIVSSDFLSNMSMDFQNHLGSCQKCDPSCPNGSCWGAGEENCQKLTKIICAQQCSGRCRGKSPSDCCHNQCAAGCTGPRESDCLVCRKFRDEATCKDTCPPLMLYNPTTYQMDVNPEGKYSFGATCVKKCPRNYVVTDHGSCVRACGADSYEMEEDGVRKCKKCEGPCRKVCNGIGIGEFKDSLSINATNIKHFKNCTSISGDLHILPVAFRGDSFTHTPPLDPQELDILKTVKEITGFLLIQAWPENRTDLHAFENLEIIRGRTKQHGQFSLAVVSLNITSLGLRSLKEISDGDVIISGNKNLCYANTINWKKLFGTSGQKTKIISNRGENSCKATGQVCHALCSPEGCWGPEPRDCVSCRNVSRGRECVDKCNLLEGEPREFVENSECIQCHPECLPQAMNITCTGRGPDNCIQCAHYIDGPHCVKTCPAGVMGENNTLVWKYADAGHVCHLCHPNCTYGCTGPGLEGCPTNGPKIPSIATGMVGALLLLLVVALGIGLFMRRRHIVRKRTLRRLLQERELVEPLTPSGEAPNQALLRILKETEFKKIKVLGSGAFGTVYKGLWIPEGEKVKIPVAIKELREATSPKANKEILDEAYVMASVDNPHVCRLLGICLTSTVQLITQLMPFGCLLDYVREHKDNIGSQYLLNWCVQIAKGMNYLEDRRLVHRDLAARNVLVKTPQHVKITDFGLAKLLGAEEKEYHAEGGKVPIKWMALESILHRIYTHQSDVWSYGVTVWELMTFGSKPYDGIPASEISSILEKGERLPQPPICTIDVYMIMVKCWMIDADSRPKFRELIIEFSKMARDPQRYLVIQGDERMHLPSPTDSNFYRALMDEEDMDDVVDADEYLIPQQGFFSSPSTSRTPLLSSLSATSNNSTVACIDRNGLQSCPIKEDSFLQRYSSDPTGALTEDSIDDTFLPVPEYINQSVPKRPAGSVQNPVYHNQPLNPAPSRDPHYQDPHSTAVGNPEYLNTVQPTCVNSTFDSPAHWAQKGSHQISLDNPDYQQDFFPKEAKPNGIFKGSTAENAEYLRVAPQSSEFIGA
Experimental: as §1

IKKα = IKKα (Homo sapiens, UniProt O15111); assay: Kinase selectivity panel; format: biochemical; settings: read-out: percent of control activity, IKKα
Experimental: as §1

MEK kinase 1 = assay: Kinase selectivity panel; format: biochemical; settings: 50 μM
Experimental: as §1

P38 MAP kinase 1 = P38 MAP kinase 1 (Homo sapiens, UniProt Q16539); assay: Kinase selectivity panel; format: biochemical; settings: read-out: percent of control activity, P38 MAP kinase 1
Chain of P38 MAP kinase 1 (Q16539 whole entry): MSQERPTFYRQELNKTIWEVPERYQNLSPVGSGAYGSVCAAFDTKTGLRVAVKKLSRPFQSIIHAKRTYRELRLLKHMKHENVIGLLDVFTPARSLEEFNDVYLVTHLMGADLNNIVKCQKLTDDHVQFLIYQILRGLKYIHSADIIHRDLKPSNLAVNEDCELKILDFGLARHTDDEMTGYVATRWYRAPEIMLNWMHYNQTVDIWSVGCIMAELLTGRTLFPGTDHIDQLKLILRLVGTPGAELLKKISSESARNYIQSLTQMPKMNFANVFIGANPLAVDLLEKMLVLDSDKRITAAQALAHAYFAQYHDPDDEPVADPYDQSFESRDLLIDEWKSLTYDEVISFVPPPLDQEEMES
Experimental: as §1

P38 MAP kinase 2 = P38 MAP kinase 2 (Homo sapiens, UniProt Q15759); assay: Kinase selectivity panel; format: biochemical; settings: read-out: percent of control activity, P38 MAP kinase 2
Chain of P38 MAP kinase 2 (Q15759 whole entry): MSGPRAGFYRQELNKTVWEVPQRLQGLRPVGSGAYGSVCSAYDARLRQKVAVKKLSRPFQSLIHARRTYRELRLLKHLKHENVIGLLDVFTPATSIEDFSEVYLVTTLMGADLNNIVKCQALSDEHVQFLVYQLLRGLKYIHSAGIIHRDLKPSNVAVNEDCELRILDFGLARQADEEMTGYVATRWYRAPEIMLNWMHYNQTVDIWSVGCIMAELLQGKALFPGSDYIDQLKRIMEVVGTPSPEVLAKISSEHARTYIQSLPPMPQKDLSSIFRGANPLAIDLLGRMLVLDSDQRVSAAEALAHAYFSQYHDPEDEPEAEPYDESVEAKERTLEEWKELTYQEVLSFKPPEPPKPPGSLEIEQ
Experimental: as §1

PDK1 = PDK1 (Homo sapiens, UniProt O15530); assay: Kinase selectivity panel; format: biochemical; settings: read-out: percent of control activity, PDK1
Experimental: as §1

PKA = PKA (Homo sapiens, UniProt P17612); assay: Kinase selectivity panel; format: biochemical; settings: read-out: percent of control activity, PKA
Experimental: as §1

Protein kinase C α = Protein kinase C α (Homo sapiens, UniProt P17252); assay: Kinase selectivity panel; format: biochemical; settings: read-out: percent of control activity, Protein kinase C α
Experimental: as §1

Protein kinase C ε = Protein kinase C ε (Homo sapiens, UniProt Q02156); assay: Kinase selectivity panel; format: biochemical; settings: read-out: percent of control activity, Protein kinase C ε
Chain of Protein kinase C ε (Q02156 whole entry): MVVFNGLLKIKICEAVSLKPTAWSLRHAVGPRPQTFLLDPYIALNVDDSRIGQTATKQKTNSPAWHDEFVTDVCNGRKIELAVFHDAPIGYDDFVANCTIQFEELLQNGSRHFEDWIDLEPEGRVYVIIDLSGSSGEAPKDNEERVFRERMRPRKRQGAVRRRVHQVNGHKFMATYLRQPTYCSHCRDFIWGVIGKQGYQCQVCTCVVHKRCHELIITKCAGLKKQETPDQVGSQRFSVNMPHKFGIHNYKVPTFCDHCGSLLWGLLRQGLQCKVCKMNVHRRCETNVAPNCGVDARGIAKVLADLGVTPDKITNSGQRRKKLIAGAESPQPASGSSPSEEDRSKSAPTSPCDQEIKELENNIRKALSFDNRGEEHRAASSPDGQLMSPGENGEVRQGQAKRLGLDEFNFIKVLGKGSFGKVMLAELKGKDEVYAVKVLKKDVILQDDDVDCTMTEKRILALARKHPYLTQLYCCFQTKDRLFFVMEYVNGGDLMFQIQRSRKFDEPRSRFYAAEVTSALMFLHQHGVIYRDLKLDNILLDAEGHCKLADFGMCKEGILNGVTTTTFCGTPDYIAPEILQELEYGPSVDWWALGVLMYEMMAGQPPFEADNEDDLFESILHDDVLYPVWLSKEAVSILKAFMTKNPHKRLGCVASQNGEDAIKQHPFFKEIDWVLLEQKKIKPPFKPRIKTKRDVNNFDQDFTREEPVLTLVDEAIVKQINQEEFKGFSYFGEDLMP
Experimental: as §1

cRaf = cRaf (Homo sapiens, UniProt P04049); assay: Kinase selectivity panel; format: biochemical; settings: read-out: percent of control activity, cRaf
Experimental: as §1

DU145 (prostate) = assay: Human tumor cell line panel, sulforhodamine B; format: cell-based; settings: DU-145, 48 hours, mean ± sd
MDA-MB-231 (breast, ER−) = assay: Human tumor cell line panel, sulforhodamine B; format: cell-based; settings: 48 hours, mean ± sd
SK-OV-3 (ovary) = assay: Human tumor cell line panel, sulforhodamine B; format: cell-based; settings: 48 hours, mean ± sd
ICAM-1 = assay: TNFα-induced adhesion molecule expression, Western analysis; format: cell-based; settings: human endothelial cells, TNFα 100 ng/mL 6 hours, 25 μM compound
Experimental: (§2) Like endothelial cells in the body, HUVECs will proliferate in response to several growth factors, and will respond to inflammatory cytokines such as TNFα and IL-1β. Western analyses were conducted with human endothelial cells to evaluate the effects of the SK inhibitors on signaling proteins known to be regulated by TNFα. In these experiments, the cells were serum-starved for 24 hours and then exposed to TNFα (100 ng/mL) for 6 hours. Cell lysates from treated cells were assayed for the adhesion molecules ICAM-1 and VCAM-1. TNFα caused marked increases in the expression levels of adhesion proteins involved in leukocyte recruitment, including ICAM-1 and VCAM-1.

VCAM-1 = assay: as above; format: cell-based; settings: human endothelial cells, TNFα 100 ng/mL 6 hours, 25 μM compound
Experimental: as §2

[1] = test system: C57BL/6 mice, DSS model of IBD; assay: Acute DSS-colitis model; format: in vivo, mouse; settings: 2% DSS, 50 mg/kg oral daily
Experimental: We have conducted experiments with SK inhibitors using the dextran sulfate sodium (DSS) model of IBD. In these experiments, male C57BL/6 mice were provided with standard rodent diet and water ad libitum. After their acclimation, the animals were randomly divided into groups of 5 or 6 for DSS (40,000 MW from ICN Biomedicals, Inc., Aurora, Ohio)—and drug-treatment. The SK inhibitors were dissolved in PEG400, and given once daily by oral gavage in a volume of 0.1 mL per dose. Dipentum, an FDA-approved anti-colitis drug whose active ingredient, olsalazine, is converted to 5-aminosalicylic acid in vivo, was used as a positive control. The mice were given normal drinking water or 2% DSS and treated orally with an SK inhibitor or Dipentum at a dose of 50 mk/kg daily. The body weight of each animal was measured each day, and the Disease Activity Index (DAI) was scored for each animal on Days 4-6. On Day 6, the animals were sacrificed by cervical dislocation and the entire colon was removed and measured to the nearest 0.1 cm. Portions of the colons were then fixed, sectioned and their histologies were assessed on a blinded basis to determine their Histology Score. Other portions of the colons were used for biochemical analyses of inflammation markers.

[2] = test system: female DBA/1 mice, collagen-induced arthritis; assay: Collagen-Induced Arthritis (CIA) model; format: in vivo, mouse; settings: Day 12
Experimental: The anti-arthritis activities of the SK inhibitor Compound 62 were assessed in the Collagen-Induced Arthritis (CIA) model. Female DBA/1 mice were injected subcutaneously in the tail with chicken immunization-grade type II collagen (Chondrex) emulsified in complete Freund's adjuvant (Sigma) at 2 mg/mL. Three weeks later, the mice received a collagen booster in incomplete Freund's adjuvant and were monitored daily thereafter for arthritic symptoms. […] The severity of disease in each animal was quantified by measurement of the hind paw volume with digital calipers. […] Differences among treatment groups were tested using ANOVA.

[3] = 100 mg/kg orally each day 6 days per week

Chain of Abl (P00519 whole entry, species assumed, the tested form may be a part): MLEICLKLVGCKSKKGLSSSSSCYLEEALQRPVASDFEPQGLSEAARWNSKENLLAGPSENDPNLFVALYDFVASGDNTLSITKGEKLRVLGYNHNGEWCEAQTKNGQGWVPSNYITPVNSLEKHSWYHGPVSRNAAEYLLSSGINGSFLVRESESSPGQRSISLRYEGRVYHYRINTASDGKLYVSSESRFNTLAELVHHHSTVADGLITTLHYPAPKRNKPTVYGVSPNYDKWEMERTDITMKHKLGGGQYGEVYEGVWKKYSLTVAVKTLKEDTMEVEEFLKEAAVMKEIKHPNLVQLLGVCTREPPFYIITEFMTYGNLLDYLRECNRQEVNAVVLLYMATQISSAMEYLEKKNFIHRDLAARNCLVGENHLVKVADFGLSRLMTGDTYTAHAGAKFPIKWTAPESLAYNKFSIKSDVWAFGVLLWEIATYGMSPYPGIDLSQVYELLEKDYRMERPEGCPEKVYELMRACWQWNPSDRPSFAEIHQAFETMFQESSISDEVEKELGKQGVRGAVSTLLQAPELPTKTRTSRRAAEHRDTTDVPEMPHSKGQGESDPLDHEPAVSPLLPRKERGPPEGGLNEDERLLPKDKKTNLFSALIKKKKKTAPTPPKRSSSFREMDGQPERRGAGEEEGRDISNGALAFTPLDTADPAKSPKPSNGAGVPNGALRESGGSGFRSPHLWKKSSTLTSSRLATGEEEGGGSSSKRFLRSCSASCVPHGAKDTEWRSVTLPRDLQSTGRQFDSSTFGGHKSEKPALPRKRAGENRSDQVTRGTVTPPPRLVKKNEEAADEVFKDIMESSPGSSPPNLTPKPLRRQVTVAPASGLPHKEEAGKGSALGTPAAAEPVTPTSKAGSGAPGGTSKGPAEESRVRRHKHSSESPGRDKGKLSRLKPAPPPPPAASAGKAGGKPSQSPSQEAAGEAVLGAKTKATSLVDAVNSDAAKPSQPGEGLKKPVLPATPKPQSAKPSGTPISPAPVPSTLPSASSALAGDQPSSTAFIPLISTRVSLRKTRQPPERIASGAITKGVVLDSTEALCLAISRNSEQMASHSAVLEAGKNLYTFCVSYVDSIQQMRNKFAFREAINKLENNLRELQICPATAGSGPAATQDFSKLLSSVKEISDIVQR

O=C(NCc1ccncc1)C12CC3CC(C1)CC(c1ccc(Cl)cc1)(C3)C2 [Compound 62, 3-(4-Chloro-phenyl)-adamantane-1-carboxylic acid (pyridin-4-ylmethyl)-amide]
remaining activity at 50 µM (Abl): 98%
remaining activity at 50 µM (Aurora-A): 103 ± 1%
remaining activity at 50 µM (CDK1/cyclinB): 105 ± 1%
remaining activity at 50 µM (CDK2/cyclinE): 106 ± 6%
remaining activity at 50 µM (CHK1): 142 ± 13%
remaining activity at 50 µM (Ca^2+/calmodulin PK IV): 81 ± 3%
remaining activity at 50 µM (EFGR): 101 ± 3%
remaining activity at 50 µM (IKKα): 150 ± 16%
percent of control activity, MEK kinase 1 (MEK kinase 1): 104 ± 3%
remaining activity at 50 µM (P38 MAP kinase 1): 94 ± 2%
remaining activity at 50 µM (P38 MAP kinase 2): 109 ± 5%
remaining activity at 50 µM (PDK1): 116 ± 3%
remaining activity at 50 µM (PKA): 104 ± 5%
remaining activity at 50 µM (Protein kinase C α): 86 ± 5%
remaining activity at 50 µM (Protein kinase C ε): 101 ± 1%
remaining activity at 50 µM (cRaf): 96 ± 5%
IC50 (DU145 (prostate)): 21.9 ± 1.5 µM
IC50 (MDA-MB-231 (breast, ER−)): 29.1 ± 11.1 µM
IC50 (SK-OV-3 (ovary)): 10.5 ± 2.6 µM
TNFα induction of ICAM-1 (ICAM-1): completely abrogated
TNFα induction of VCAM-1 (VCAM-1): completely abrogated
increase in colon myeloperoxidase (MPO) activity [1]: markedly attenuated
colon length ([1]; Day 6): intermediate length
histological examination of colon sections ([1]; Day 6): no or mild crypt damage, no or low levels of inflammatory cell infiltration and no edema in the submucosa
Disease Activity Index (intensity of IBD manifestations) ([1]; Days 4-6): reduced
colonic S1P levels vs DSS-alone ([1]; LC-MS/MS): markedly lower
reduction in clinical score vs vehicle [2, 3]: 67%
reduction in the increase in hind paw thickness vs vehicle [2, 3]: 90%
histologic damage of tibiotarsal joints ([2]; 100 mg/kg orally): significantly reduced
